Laboratory results: patent US4522824A, “Indole derivatives of tryptamine and cardiovascular compositions thereof” (Sanofi, priority 1982, dated 1985)
Structures can show the parent of a compound that is named as a salt.

Columns and labels:
β-adrenergic receptors = test: Antagonism of the effects of isoprenaline (tachycardia) in the anaesthetized dog; assay type: in vivo; conditions: dose inhibiting 80% of the tachycardia induced by i.v. isoprenaline, intravenous
Method: (§1) In vivo pharmacological action in the dog
(§2) The dog is anaesthetized with sodium pentobarbital, administered by the intravenous route at the dose of 30 mg/kg. A cannula placed in the short saphenous vein allows the products to be injected intravenously. The animal is intubated and allowed to breathe spontaneously.
(§3) The cardiac frequency (C.F.) and the systemic arterial pressure (A.P.) and the parameter (dP/dt)p^-1 max which expresses the cardiac contractibility are recorded with the aid of catheters and the variations in these parameters are measured after intravenous injection of the product to be tested, each product being tested at increasing doses.
Antagonism of the effects of isoprenaline
The antagonism of the products with respect to the stimulating cardiovascular effects of isoprenaline on the β-adrenergic receptors was sought. The results are shown in Table II hereinafter and expressed in ID80 : this is the dose expressed in mg/kg which provokes inhibition of 80% of the tachycardia induced by the isoprenaline administered by the intravenous route.

[1] = In vivo pharmacological action in the anaesthetized dog (cardiac frequency, systemic arterial pressure, cardiac contractibility); conditions: Table II, parameter name is in the drawing [drawing 9], intravenous; for direct effect: first sign; for direct effect, [drawing 9]: second sign (wrapped to next line)
Method: as §1, §2, §3

[2] = Cardiac frequency in the alert dog after oral administration; assay type: in vivo
From the text: The different results on the cardiovascular system obtained in the anaesthetized dog have been confirmed for certain products in the alert dog after administration of the product by the oral route.

α-adrenergic receptors = test: Antagonism of the effects of noradrenaline (pressive response) in the dog; assay type: in vivo; conditions: dose inhibiting 50% of the pressive response to i.v. noradrenaline
Method: as §1, §2, §3
Antagonism of the effects of noradrenaline
The antagonism of the products with respect to the vascular effects provoked by the intravenous administration of noradrenaline on the α-adrenergic receptors was sought. The results shown in Table II are expressed in ID50 : this is the dose (mg/kg) which provokes the inhibition of 50% of the pressive response due to the intravenous administration of noradrenaline.

[3] = Chronotropic effect in the dog subjected to reserpine and anaesthetized; assay type: in vivo; conditions: 1 mg/kg intravenous

SMILES | ID80 isoprenaline, β-effect (β-adrenergic receptors) | direct effect [1] | direct effect, [drawing 9] [1] | effect on cardiac frequency [2] | ID50 (α-adrenergic receptors) | chronotropic effect [3]
CCOC(=O)c1cc2c(OCC(O)CNC(C)(C)Cc3c[nH]c4ccc(OC)cc34)cccc2[nH]1 (stereo not drawn) [SR41648] | 0.1 mg/kg | .dwnarw. | .dwnarw. |  |  | 
CC(C)(Cc1c[nH]c2ccccc12)NCC(O)COc1cccc2[nH]c(CO)cc12 (stereo not drawn) [CM41165] | 0.05 mg/kg | .dwnarw. | .dwnarw. |  |  | 
CC(C)(Cc1c[nH]c2ccccc12)NCC(O)COc1cccc2[nH]c(C#N)cc12 (stereo not drawn) [SR41370A] | 0.05 mg/kg | weak .dwnarw. | .uparw. |  |  | 
CC(C)OC(=O)c1cc2c(OCC(O)CNC(C)(C)Cc3c[nH]c4ccccc34)cccc2[nH]1 (stereo not drawn) [SR41719A] |  |  |  | decrease the cardiac frequency or are without action thereon |  | 
CCOC(=O)c1cc2c(OCC(O)CNC(C)Cc3c[nH]c4ccccc34)cccc2[nH]1 (racemic) [SR41294A] | 0.1 mg/kg | .dwnarw. | .dwnarw. |  |  | 
CCOC(=O)c1cc2c(OCC(O)CNC(C)(C)Cc3c[nH]c4ccccc34)cccc2[nH]1 (stereo not drawn) [CM40593, 4-[3-[2-(3-indolyl)1,1-dimethylethylamino]2-hydroxypropoxy]2-ethoxycarbonyl indole] | 0.1 mg/kg | = or .dwnarw. | .uparw. |  | 0.1 mg/kg | slight positive chronotropic effect
CCOC(=O)c1cc2c(OCC(O)CNC(C)(CO)Cc3c[nH]c4ccccc34)cccc2[nH]1 (stereo not drawn) [SR41832] | 0.1 mg/kg | .dwnarw. | .dwnarw. |  |  | 
CC(C)(Cc1c[nH]c2ccccc12)NCC(O)COc1cccc2[nH]c(C(N)=O)cc12 (stereo not drawn) [CM41105] | 0.1 mg/kg | weak .dwnarw. | .uparw. |  |  | 
CCOC(=O)c1cc2c(OCC(O)CNC(C)(C)Cc3c[nH]c4ccc(F)cc34)cccc2[nH]1 (stereo not drawn) [SR41779A] |  |  |  | decrease the cardiac frequency or are without action thereon |  | 
CCOC(=O)c1cc2c(OCC(O)CNC(C)(C)Cc3c[nH]c4ccc(Cl)cc34)cccc2[nH]1 (stereo not drawn) [SR41780A] |  |  |  | decrease the cardiac frequency or are without action thereon |  | 
CCCCN(CCCC)C(=O)c1cc2c(OCC(O)CNC(C)(C)Cc3c[nH]c4ccccc34)cccc2[nH]1 (stereo not drawn) [SR41830A] | 1 mg/kg |  | .uparw. |  |  | 
CCOC(=O)c1cc2c(OCC(O)CNC(C)(C)Cc3c[nH]c4ccc(C#N)cc34)cccc2[nH]1 (stereo not drawn) [SR41831A, 4-[3-[(5-cyano 3-indolyl)1,1-dimethylethylamino]2-hydroxypropoxy]2-ethoxycarbonyl indole, neutral fumarate] | 0.1 mg/kg | .dwnarw. | .dwnarw. |  |  | 
CC(C)(Cc1c[nH]c2ccccc12)NCC(O)COc1cccc2[nH]c(C(=O)O)cc12 (stereo not drawn) [SR41828A] | 0.3 mg/kg | = or .dwnarw. | = | decrease the cardiac frequency or are without action thereon |  | 
CCOC(=O)c1cc2c(OCC(O)CNC(C)(C)Cc3c[nH]c4ccc(C)cc34)cccc2[nH]1 (stereo not drawn) [SR41716A] |  |  |  | decrease the cardiac frequency or are without action thereon |  | 
